According to ChEMBL document CHEMBL1133002 (J Med Chem, 2000):

Key:
Rattus norvegicus = species: Rattus norvegicus; assay: ED50 value was measured using rat air-induced abdominal irritant test(RAIT); assay type: functional; conditions: Abdomen
Mus musculus [1] = assay: (§1) potential antinociceptive activity initially at a screening dose of 30 mg/kg po in the mouse abdominal irritant test(MAIT) using acetylcholine bromide as irritant; assay type: functional; conditions: Abdomen
[2] = target: T1, Adrenergic receptor alpha-1 (Rattus norvegicus, UniProt P15823+P23944+P43140); assay: in vitro alpha-1 adrenergic receptor binding assay from rats, using RX 821002 as the displaceable ligand; assay type: protein assay
T1 sequence (P15823 whole entry): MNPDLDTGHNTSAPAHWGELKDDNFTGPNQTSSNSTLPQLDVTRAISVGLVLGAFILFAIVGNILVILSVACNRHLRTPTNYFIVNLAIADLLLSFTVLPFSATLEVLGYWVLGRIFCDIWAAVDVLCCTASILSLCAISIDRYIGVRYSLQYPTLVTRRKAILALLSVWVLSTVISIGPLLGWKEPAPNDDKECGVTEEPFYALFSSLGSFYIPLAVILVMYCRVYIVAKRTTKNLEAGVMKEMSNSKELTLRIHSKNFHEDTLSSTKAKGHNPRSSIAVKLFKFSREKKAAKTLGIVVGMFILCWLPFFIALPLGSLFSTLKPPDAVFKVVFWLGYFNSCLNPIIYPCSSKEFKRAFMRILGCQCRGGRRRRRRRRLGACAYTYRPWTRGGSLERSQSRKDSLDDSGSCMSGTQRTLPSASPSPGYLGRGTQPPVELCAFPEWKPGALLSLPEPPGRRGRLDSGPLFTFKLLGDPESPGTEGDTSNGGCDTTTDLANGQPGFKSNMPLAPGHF
T1 sequence (P23944 whole entry): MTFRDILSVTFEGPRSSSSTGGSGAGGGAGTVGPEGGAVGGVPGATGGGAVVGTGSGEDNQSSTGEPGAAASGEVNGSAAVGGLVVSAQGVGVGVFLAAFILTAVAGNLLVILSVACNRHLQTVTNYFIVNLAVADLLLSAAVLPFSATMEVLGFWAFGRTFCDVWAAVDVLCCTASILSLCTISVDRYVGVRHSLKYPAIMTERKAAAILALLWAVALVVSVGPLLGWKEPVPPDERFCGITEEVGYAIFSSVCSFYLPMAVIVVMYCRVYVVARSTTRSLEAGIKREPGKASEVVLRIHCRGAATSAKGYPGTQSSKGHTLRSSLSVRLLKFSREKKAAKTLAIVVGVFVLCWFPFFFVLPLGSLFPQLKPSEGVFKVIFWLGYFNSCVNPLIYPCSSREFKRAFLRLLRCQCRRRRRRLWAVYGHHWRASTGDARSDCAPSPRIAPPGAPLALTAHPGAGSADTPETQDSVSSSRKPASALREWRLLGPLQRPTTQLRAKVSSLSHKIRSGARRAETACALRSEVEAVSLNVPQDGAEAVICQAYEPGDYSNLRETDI
T1 sequence (P43140 whole entry): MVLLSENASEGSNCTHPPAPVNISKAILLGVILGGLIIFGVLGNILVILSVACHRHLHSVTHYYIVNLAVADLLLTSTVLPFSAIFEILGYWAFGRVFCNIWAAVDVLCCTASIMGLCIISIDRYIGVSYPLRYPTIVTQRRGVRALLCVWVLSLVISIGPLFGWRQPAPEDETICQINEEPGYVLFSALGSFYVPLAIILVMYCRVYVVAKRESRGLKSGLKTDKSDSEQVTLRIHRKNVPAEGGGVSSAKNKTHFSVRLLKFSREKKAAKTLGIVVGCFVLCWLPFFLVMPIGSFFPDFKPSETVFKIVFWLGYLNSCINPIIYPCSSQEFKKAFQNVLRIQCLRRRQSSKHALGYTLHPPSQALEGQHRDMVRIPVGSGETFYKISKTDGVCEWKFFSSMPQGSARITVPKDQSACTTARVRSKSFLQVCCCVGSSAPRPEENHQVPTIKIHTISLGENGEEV

[3] = target: T2, Alpha-2B adrenergic receptor (Rattus norvegicus, UniProt P19328); assay: in vitro alpha-2B adrenergic receptor binding assay from rats, using RX 821002 as the displaceable ligand
T2 sequence (P19328 whole entry): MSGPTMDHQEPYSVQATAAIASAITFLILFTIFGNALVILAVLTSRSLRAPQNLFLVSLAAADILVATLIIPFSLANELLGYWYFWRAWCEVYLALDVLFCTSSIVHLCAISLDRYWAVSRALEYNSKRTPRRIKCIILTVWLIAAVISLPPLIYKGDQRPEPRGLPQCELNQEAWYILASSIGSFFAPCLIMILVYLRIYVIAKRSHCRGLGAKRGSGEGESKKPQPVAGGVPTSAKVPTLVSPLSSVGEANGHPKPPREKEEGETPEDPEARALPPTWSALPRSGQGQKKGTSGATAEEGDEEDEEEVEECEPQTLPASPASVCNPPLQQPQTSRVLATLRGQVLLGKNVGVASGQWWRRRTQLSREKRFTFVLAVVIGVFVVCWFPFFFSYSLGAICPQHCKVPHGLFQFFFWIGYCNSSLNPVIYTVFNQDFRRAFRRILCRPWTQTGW

[4] = target: T3, Alpha-2C adrenergic receptor (Rattus norvegicus, UniProt P22086); assay: in vitro alpha-2C adrenergic receptor binding assay from rats, using RX 821002 as the displaceable ligand
T3 sequence (P22086 whole entry): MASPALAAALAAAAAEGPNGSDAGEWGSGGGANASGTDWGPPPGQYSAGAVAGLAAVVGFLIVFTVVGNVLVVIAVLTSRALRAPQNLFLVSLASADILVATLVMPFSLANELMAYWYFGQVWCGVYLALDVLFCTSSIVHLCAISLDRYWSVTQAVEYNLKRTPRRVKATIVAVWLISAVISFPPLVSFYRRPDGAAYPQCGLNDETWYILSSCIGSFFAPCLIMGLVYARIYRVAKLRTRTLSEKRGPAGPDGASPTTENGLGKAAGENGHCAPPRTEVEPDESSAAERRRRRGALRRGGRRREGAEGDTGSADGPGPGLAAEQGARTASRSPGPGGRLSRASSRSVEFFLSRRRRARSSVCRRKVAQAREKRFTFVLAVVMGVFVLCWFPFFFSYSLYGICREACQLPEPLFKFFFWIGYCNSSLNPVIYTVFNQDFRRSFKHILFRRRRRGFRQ

[5] = target: T4, Alpha-2A adrenergic receptor (Rattus norvegicus, UniProt P22909); assay: in vitro alpha-2A adrenergic receptor binding assay from rats, using RX 821002 as the displaceable ligand
T4 sequence (P22909 whole entry): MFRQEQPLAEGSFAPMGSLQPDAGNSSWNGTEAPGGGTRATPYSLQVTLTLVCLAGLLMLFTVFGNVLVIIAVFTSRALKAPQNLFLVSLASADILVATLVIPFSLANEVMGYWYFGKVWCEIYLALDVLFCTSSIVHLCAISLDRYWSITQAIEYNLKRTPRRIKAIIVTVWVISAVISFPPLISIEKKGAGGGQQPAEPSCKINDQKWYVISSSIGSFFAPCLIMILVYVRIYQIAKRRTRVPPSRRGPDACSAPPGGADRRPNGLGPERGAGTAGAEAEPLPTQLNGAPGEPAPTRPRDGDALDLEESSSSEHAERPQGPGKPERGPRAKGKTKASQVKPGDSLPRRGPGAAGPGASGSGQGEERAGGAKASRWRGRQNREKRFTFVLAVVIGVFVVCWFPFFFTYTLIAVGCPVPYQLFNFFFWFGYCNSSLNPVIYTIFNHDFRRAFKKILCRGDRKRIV

[6] = target: T5, Alpha-2A adrenergic receptor (Rattus norvegicus) (UniProt P22909); assay: % inhibition of alpha-2A adrenergic receptor binding at 1 uM
T5 sequence (whole entry): T4 sequence (P22909 whole entry)

[7] = target: T6, Alpha-2C adrenergic receptor (Rattus norvegicus) (UniProt P22086); assay: % inhibition of alpha-2C adrenergic receptor binding at 1 uM
T6 sequence (whole entry): T3 sequence (P22086 whole entry)

Mus musculus [8] = species: Mus musculus; assay: Peroral ED50 value was measured using mouse 48 degree hot plate test; assay type: functional; conditions: po
Mus musculus [9] = species: Mus musculus; assay: Peroral ED50 value was measured using mouse tail flick test; assay type: functional; conditions: po
Mus musculus [10] = species: Mus musculus; assay: Peroral ED50 value was measured using mouse abdominal irritant test(MAIT); assay type: functional; conditions: Abdomen, po
Mus musculus [11] = assay: as §1; conditions: Abdomen, read-out: Inhibition

| Compound | ED50 (Rattus norvegicus) [mg/kg] | inhibition in vivo at 30 mg/kg (Mus musculus [1]) [%] | Ki [2] [nM] | Ki [3] [nM] | Ki [4] [nM] | Ki [5] [nM] | inhibition [6] [%] | inhibition [7] [%] | ED50 (Mus musculus [8]) [mg/kg] | ED50 (Mus musculus [9]) [mg/kg] | ED50 (Mus musculus [10]) [mg/kg] | inhibition in vivo at 30 mg/kg (Mus musculus [11]) [%] |
| --- | --- | --- | --- | --- | --- | --- | --- | --- | --- | --- | --- | --- |
| Clc1cccc(Cl)c1NC1=NCCN1 [CLONIDINE] | 0.1 | 0.05 |  |  |  |  |  |  |  |  |  |  |
| Cc1sc(C)c2c1CCC=C2c1c[nH]cn1 |  | 40 | 110 | 100 | 26 | 25 |  |  |  |  |  |  |
| Cc1sc(C)c2c1CCCC2c1c[nH]cn1 (configuration not stated) | 7.9 | 93 | 48 | 141 | 205 | 68 |  |  |  |  |  |  |
| c1nc(C2CCCc3sccc32)c[nH]1 (configuration not stated) | 0.9 | 100 | 110 | 99 | 172 | 27 |  |  |  |  |  |  |
| c1nc(C2CCCc3ccsc32)c[nH]1 (configuration not stated) |  | 73 | 91 |  |  |  | 87 | 54 |  |  |  |  |
| C1=C(c2c[nH]cn2)c2ccsc2CC1 | 15.1 | 100 | 443 | 621 |  | 254 |  |  | 25.9 | 100 | 11.6 |  |
| c1cc(-c2c[nH]cn2)c2ccsc2c1 |  | 60 | 343 | 663 |  | 277 |  |  |  |  |  |  |
| C1=C(c2c[nH]cn2)c2sccc2CC1 |  | 60 | 399 | 940 |  | 224 |  |  |  |  |  |  |
| Cc1cccc([C@H](C)c2cnc[nH]2)c1C [DEXMEDETOMIDINE] | 0.12 |  |  |  |  | 5 |  |  |  |  |  | 0.09 |
